Reference: ChEMBL document CHEMBL1909046, “DrugMatrix in vitro pharmacology data”

Tests used:
[1] = target: T1, Alpha-1B adrenergic receptor (Rattus norvegicus, UniProt P15823); test: DRUGMATRIX: Alpha-1B adrenergic receptor radioligand binding (ligand: prazosin); assay type: cell membranes, Wistar, Liver, Membrane; conditions: Not Active = under 50% inhibition at 10 µM
T1 sequence (P15823 whole entry): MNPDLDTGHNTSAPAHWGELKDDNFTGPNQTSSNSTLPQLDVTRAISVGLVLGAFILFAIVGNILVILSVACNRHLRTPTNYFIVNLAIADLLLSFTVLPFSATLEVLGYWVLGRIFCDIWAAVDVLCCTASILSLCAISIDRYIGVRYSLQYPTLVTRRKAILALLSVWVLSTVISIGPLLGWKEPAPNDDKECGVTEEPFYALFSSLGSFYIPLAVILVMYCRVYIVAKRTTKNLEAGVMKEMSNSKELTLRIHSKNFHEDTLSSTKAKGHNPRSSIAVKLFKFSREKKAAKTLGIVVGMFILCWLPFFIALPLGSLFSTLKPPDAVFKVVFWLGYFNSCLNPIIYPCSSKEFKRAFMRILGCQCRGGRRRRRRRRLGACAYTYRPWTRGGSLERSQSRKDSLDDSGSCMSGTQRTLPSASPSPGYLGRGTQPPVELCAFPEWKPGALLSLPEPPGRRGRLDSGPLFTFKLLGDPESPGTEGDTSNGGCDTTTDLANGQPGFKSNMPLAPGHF

Carbonic anhydrase 2 = Carbonic anhydrase 2 (Homo sapiens, UniProt P00918); test: DRUGMATRIX: Carbonic Anhydrase II enzyme inhibition (substrate: 4-Nitrophenyl acetate (4-NPA)); assay type: tissue-based, Erythrocyte; conditions: erythrocyte; Not Active = under 50% inhibition at 10 µM
[2] = target: Prostaglandin G/H synthase 1 (Homo sapiens, UniProt P23219); test: biochemical; assay type: tissue-based, Platelet;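 also: inhibition of COX-1 enzyme activity, with arachidonic acid supplied as substrate; in other assays of this panel Not Active means under 50% inhibition at 10 µM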
[3] = target: cGMP-specific 3',5'-cyclic phosphodiesterase (Homo sapiens, UniProt O76074); test: DRUGMATRIX: Phosphodiesterase PDE5 enzyme inhibition (substrate: [3H]cGMP + cGMP); assay type: tissue-based, Platelet; conditions: platelet; Not Active = under 50% inhibition at 10 µM
[4] = target: 5-hydroxytryptamine receptor 1B (Rattus norvegicus, UniProt P28564); assay type: cell membranes, Wistar, Cerebral cortex, Membrane; also: in other assays of this panel Not Active means under 50% inhibition at 10 µM
Cytochrome P450 2C19 = Cytochrome P450 2C19 (Homo sapiens, UniProt P33261); conditions: bti-tn-5b1-4; also: in other assays of this panel Not Active means under 50% inhibition at 10 µM
Cytochrome P450 2C9 = Cytochrome P450 2C9 (Homo sapiens, UniProt P11712); conditions: bti-tn-5b1-4; also: in other assays of this panel Not Active means under 50% inhibition at 10 µM
Sequence of Cytochrome P450 2C9 (P11712 whole entry): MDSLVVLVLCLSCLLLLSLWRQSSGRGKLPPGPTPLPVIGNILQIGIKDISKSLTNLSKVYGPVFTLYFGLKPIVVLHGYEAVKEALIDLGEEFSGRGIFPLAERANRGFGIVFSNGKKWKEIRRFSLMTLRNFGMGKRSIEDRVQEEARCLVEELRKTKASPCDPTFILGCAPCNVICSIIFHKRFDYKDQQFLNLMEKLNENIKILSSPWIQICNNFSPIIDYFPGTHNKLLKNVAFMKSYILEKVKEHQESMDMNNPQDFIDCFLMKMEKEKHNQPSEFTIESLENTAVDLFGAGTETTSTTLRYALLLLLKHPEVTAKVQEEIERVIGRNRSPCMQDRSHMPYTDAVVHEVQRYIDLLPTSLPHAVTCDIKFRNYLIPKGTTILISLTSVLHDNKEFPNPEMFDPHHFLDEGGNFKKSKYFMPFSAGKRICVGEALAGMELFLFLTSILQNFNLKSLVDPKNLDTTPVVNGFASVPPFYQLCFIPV

Sequence of Prostaglandin G/H synthase 1 (P23219 whole entry): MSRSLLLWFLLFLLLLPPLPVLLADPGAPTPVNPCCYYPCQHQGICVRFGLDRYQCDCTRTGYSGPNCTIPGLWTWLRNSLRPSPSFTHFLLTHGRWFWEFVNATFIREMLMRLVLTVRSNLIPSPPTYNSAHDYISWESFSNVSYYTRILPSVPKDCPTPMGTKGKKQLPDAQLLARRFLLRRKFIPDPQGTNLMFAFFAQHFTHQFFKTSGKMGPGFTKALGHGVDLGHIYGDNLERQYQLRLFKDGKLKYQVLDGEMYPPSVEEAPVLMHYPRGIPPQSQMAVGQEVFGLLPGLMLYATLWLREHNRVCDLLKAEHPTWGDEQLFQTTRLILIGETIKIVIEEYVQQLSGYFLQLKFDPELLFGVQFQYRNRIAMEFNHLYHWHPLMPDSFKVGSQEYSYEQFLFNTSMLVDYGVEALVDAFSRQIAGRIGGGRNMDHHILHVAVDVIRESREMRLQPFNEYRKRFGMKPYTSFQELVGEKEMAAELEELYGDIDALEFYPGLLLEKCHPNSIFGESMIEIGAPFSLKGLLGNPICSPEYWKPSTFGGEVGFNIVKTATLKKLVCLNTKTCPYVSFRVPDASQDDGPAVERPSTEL
Sequence of 5-hydroxytryptamine receptor 1B (P28564 whole entry): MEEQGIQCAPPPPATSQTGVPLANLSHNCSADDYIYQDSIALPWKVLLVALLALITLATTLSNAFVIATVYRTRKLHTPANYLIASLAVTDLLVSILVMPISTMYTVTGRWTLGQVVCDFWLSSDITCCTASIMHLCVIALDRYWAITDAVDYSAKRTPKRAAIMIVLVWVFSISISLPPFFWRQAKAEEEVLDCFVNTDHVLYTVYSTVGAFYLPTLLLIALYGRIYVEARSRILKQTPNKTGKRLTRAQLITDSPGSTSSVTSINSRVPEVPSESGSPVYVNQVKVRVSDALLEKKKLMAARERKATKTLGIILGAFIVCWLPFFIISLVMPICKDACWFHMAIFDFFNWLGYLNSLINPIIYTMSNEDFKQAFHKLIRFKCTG
Sequence of Cytochrome P450 2C19 (P33261 whole entry): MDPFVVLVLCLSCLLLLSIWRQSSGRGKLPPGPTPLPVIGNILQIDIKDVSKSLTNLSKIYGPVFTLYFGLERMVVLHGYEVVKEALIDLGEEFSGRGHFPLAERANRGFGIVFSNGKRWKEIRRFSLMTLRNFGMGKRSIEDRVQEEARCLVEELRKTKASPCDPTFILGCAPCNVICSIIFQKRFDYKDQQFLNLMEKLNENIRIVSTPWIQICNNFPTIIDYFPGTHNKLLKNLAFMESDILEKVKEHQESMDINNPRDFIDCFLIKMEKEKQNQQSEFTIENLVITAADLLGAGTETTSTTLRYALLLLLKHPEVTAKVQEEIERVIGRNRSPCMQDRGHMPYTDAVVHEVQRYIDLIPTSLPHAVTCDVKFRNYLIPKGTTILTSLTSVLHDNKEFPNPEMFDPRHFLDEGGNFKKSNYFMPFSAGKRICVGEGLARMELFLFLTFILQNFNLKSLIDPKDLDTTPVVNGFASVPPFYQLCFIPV

| Structure (SMILES) | IC50 [1] | IC50 (Carbonic anhydrase 2) | IC50 ([2]; platelet) | IC50 [3] | IC50 [4] | IC50 (Cytochrome P450 2C19) | Ki (Cytochrome P450 2C19) | IC50 (Cytochrome P450 2C9) | Ki (Cytochrome P450 2C9) | IC50 ([2]; read-out: IC50) [µM] |
| --- | --- | --- | --- | --- | --- | --- | --- | --- | --- | --- |
| COc1cc(NC(C)CCCN)c2ncccc2c1 (centres undefined) [PRIMAQUINE] | Not Active | Not Active | Not Active | Not Active | Not Active | Not Active | Not Active | Not Active | Not Active |  |
| COc1cc(/C=C/C(=O)O)ccc1O [FERULATE] | Not Active | Not Active | Not Active | Not Active | Not Active | Not Active | Not Active | Not Active | Not Active |  |
| CCN1CCN(C(=O)N[C@@H](C(=O)N[C@@H]2C(=O)N3[C@@H]2SC(C)(C)[C@@H]3C(=O)O)c2ccccc2)C(=O)C1=O [PIPERACILLIN] | Not Active | Not Active | Not Active | Not Active | Not Active | Not Active | Not Active | Not Active | Not Active |  |
| C=CCN1CC[C@]23c4c5ccc(O)c4O[C@H]2/C(=N/N=C2\CC[C@@]4(O)[C@H]6Cc7ccc(O)c8c7[C@@]4(CCN6CC=C)[C@H]2O8)CC[C@@]3(O)[C@H]1C5 [NALOXONAZINE] | Not Active | Not Active | Not Active | Not Active | Not Active | Not Active | Not Active | Not Active | Not Active |  |
| c1ccc2c(c1)Nc1ccccc1S2 [PHENOTHIAZINE] | Not Active | Not Active |  | Not Active | Not Active | Not Active | Not Active | Not Active | Not Active | 0.196 |
| Cl.NC[C@H]1CC[C@H](C(=O)Oc2ccc(CCC(=O)O)cc2)CC1 [CETRAXATE HYDROCHLORIDE] | Not Active | Not Active | Not Active | Not Active | Not Active | Not Active | Not Active | Not Active | Not Active |  |
| Nc1nc(F)nc2c1ncn2[C@@H]1O[C@H](CO)[C@@H](O)[C@@H]1O [FLUDARABINE] | Not Active | Not Active | Not Active | Not Active | Not Active | Not Active | Not Active | Not Active | Not Active |  |
| OC[C@H]1OC2C3[C@@H](CO)OC(O[C@H]4[C@H](O)[C@@H](O)[C@@H](O[C@H]5[C@H](O)[C@@H](O)[C@@H](O[C@H]6[C@H](O)[C@@H](O)[C@@H](O[C@H]7[C@H](O)[C@@H](O)[C@@H](O[C@H]8[C@H](O)[C@@H](O)[C@@H](O[C@H]9[C@H](O)[C@@H](O)C(OC1[C@H](O)[C@H]2O)O[C@@H]9CO)O[C@@H]8CO)O[C@@H]7CO)O[C@@H]6CO)O[C@@H]5CO)O[C@@H]4CO)[C@H](O)[C@H]3O | Not Active | Not Active | Not Active | Not Active | Not Active | Not Active | Not Active | Not Active | Not Active |  |
| C=CCO [ALLYL ALCOHOL] | Not Active | Not Active | Not Active | Not Active | Not Active | Not Active | Not Active | Not Active | Not Active |  |
| C[C@]12CC[C@@H](O)C[C@@H]1CC[C@@H]1[C@@H]2CC[C@]2(C)C(=O)CC[C@@H]12 [ANDROSTERONE] | Not Active | Not Active | Not Active | Not Active | Not Active | Not Active | Not Active | Not Active | Not Active |  |
| COC(=O)Nc1nc2ccc(Sc3ccccc3)cc2[nH]1 [FENBENDAZOLE] | Not Active | Not Active | Not Active | Not Active | Not Active | Not Active | Not Active | Not Active | Not Active |  |
| O=C(Nc1ccc(Cl)c(Cl)c1)c1cc(Cl)cc(Cl)c1O [3,3',4',5-TETRACHLOROSALICYLANILIDE] | Not Active | Not Active |  | Not Active | Not Active | Not Active | Not Active | Not Active | Not Active | 0.666 |
| COC(=O)C[C@](O)(CCC(C)(C)O)C(=O)O[C@@H]1C(OC)=C[C@]23CCCN2CCc2cc4c(cc2[C@H]13)OCO4 [HARRINGTONINE] | Not Active | Not Active | Not Active | Not Active | Not Active | Not Active | Not Active | Not Active | Not Active |  |
| CCCCCCNC(=O)n1cc(F)c(=O)[nH]c1=O [CARMOFUR] | Not Active | Not Active | Not Active | Not Active | Not Active | Not Active | Not Active | Not Active | Not Active |  |
| O=c1[nH]cnc2c1ncn2[C@H]1CC[C@@H](CO)O1 [DIDANOSINE] | Not Active | Not Active | Not Active | Not Active | Not Active | Not Active | Not Active | Not Active | Not Active |  |
| O=C(O)CO [GLYCOLIC ACID] | Not Active | Not Active | Not Active | Not Active | Not Active | Not Active | Not Active | Not Active | Not Active |  |
| CC(C)(C#N)c1cc(Cn2cncn2)cc(C(C)(C)C#N)c1 [ANASTROZOLE] | Not Active | Not Active | Not Active | Not Active | Not Active | Not Active | Not Active | Not Active | Not Active |  |
| O=C1c2ccccc2C(=O)C1c1ccccc1 [PHENINDIONE] | Not Active | Not Active | Not Active | Not Active | Not Active | Not Active | Not Active | Not Active | Not Active |  |
| NC(=O)NC(=O)Cc1ccccc1 [PHENACEMIDE] | Not Active | Not Active | Not Active | Not Active | Not Active | Not Active | Not Active | Not Active | Not Active |  |
| O=C(NCCN1CCOCC1)c1ccc(Cl)cc1 [MOCLOBEMIDE] | Not Active | Not Active | Not Active | Not Active | Not Active | Not Active | Not Active | Not Active | Not Active |  |
| OC[C@H]1O[C@@H]2O[C@H]3[C@H](O)[C@@H](O)[C@@H](O[C@H]4[C@H](O)[C@@H](O)[C@@H](O[C@H]5[C@H](O)[C@@H](O)[C@@H](O[C@H]6[C@H](O)[C@@H](O)[C@@H](O[C@H]7[C@H](O)[C@@H](O)[C@@H](O[C@H]1[C@H](O)[C@H]2O)O[C@@H]7CO)O[C@@H]6CO)O[C@@H]5CO)O[C@@H]4CO)O[C@@H]3CO [ALFADEX] | Not Active | Not Active | Not Active | Not Active | Not Active | Not Active | Not Active | Not Active | Not Active |  |
